{"source": "patent US20250205135A1", "about": "“COMPOSICION DE EXTRACTOS VEGETALES PARA PALIAR LOS EFECTOS DEL ENVEJECIMIENTO O RETRASO DE LA SENESCENCIA CELULAR” (MONTELOEDER S.L., priority 2022, published 2025)", "test_system": "normal human dermal fibroblasts (NHDF)", "assay": "MTT cell proliferation assay in fibroblasts pre-aged with H2O2", "format": "cell-based", "details": "EGF 20 ng/ml positive control, after 3 hours H2O2 (500 μM)", "experimental": "For the cell proliferation assay, normal human dermal fibroblasts (NHDF) were exposed for 3 hours to conditioned ageing medium containing H2O2 (500 μM). After the incubation period, the medium was replaced with fresh medium containing composition A according to the invention at different concentrations for 96 hours. Epidermal growth factor (EGF, 20 ng/ml) was included as positive control and NHDF without pretreatment in H2O2 as non-aged control (Control). Cell viability was quantified using the MTT assay."}
{"substance": "Epidermal growth factor [EGF]", "values": [{"measurement": "increase in cell viability compared to the aged control", "result": "+22.9%"}]}
